Values joined by “and” are separate entries in the source; they are usually repeats but may differ in a detail not shown here. Equal entries are not always repeated. Toxic doses and inconclusive results are not listed.
Test system: L1210 leukemia ip in BDF1 mice, survival T/C
Test: NCI In Vivo Anticancer Drug Screen. Data for tumor model L1210 Leukemia (intraperitoneal) in B6D2F1 (BDF1) mice
Conditions: endpoint: mean survival time, higher = longer survival
Method in brief: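 Ratio derived from survival: compound-dosed mice over vehicle-dosed mice, all bearing a transplantable tumor.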

[1] = dose: 100.0 mg/kg/injection, schedule: Q04DX002 (ip), vehicle: Klucel (hydroxypropylcellulose) (HPC)
[2] = dose: 200.0 mg/kg/injection, schedule: Q04DX002 (ip), vehicle: Klucel (hydroxypropylcellulose) (HPC)
[3] = dose: 400.0 mg/kg/injection, schedule: Q04DX002 (ip), vehicle: Klucel (hydroxypropylcellulose) (HPC)

**Q.** How did the T/C (dose: 25.0 mg/kg/injection, schedule: Q03HX032 (ip), vehicle: saline) turn out when `O=C(NO)c1ccccc1` was run?
**A.** 97 % of control

**Q.** And the T/C (dose: 38.0 mg/kg/injection, schedule: Q03HX032 (ip), vehicle: saline)?
**A.** 95 % of control

**Q.** And the T/C (dose: 50.0 mg/kg/injection, schedule: Q01DX009 (ip), vehicle: Klucel (hydroxypropylcellulose) (HPC))?
**A.** 90 % of control

**Q.** And the T/C (dose: 50.0 mg/kg/injection, schedule: Q01DX009 (ip), vehicle: saline with Tween-80)?
**A.** 98 % of control

**Q.** And the T/C (dose: 57.0 mg/kg/injection, schedule: Q01DX015 (ip), vehicle: saline)?
**A.** 92 % of control

**Q.** And the T/C (dose: 57.0 mg/kg/injection, schedule: Q03HX032 (ip), vehicle: saline)?
**A.** 100 % of control

**Q.** What about the T/C (dose: 62.0 mg/kg/injection, schedule: Q03HX024 (ip), vehicle: saline) of the same compound?
**A.** 96 % of control

**Q.** What about the T/C (dose: 85.0 mg/kg/injection, schedule: Q01DX015 (ip), vehicle: saline) of the same compound?
**A.** 90 % of control

**Q.** And the T/C (dose: 85.0 mg/kg/injection, schedule: Q03HX032 (ip), vehicle: saline)?
**A.** 98 % of control and 100 % of control

**Q.** And the T/C (dose: 100.0 mg/kg/injection, schedule: Q01DX001 (ip), vehicle: saline)?
**A.** 95 % of control

**Q.** What about the T/C (dose: 100.0 mg/kg/injection, schedule: Q01DX009 (ip), vehicle: Klucel (hydroxypropylcellulose) (HPC)) of the same compound?
**A.** 97 % of control and 113 % of control

**Q.** And the T/C (dose: 100.0 mg/kg/injection, schedule: Q01DX009 (ip), vehicle: acetone)?
**A.** 98 % of control

**Q.** And the T/C (dose: 100.0 mg/kg/injection, schedule: Q01DX009 (ip), vehicle: saline with Tween-80)?
**A.** 96 % of control

**Q.** And the T/C (dose: 100.0 mg/kg/injection, schedule: Q04DX003 (ip), vehicle: saline)?
**A.** 103 % of control

**Q.** What about the T/C (dose: 125.0 mg/kg/injection, schedule: Q03HX024 (ip), vehicle: saline) of the same compound?
**A.** 91 % of control

**Q.** And the T/C (dose: 130.0 mg/kg/injection, schedule: Q01DX015 (ip), vehicle: saline)?
**A.** 100 % of control

**Q.** What about the T/C (dose: 130.0 mg/kg/injection, schedule: Q03HX032 (ip), vehicle: saline) of the same compound?
**A.** 98 % of control

**Q.** And the T/C (dose: 177.0 mg/kg/injection, schedule: Q01DX009 (ip), vehicle: saline)?
**A.** 100 % of control

**Q.** And the T/C (dose: 178.0 mg/kg/injection, schedule: Q01DX009 (ip), vehicle: saline with Tween-80)?
**A.** 110 % of control

**Q.** And the T/C (dose: 200.0 mg/kg/injection, schedule: Q01DX001 (ip), vehicle: saline)?
**A.** 92 % of control

**Q.** What about the T/C (dose: 200.0 mg/kg/injection, schedule: Q01DX009 (ip), vehicle: Klucel (hydroxypropylcellulose) (HPC)) of the same compound?
**A.** 115 % of control and 124 % of control

**Q.** And the T/C (dose: 200.0 mg/kg/injection, schedule: Q01DX009 (ip), vehicle: acetone)?
**A.** 98 % of control

**Q.** What about the T/C (dose: 200.0 mg/kg/injection, schedule: Q01DX009 (ip), vehicle: saline with Tween-80) of the same compound?
**A.** 112 % of control

**Q.** What about the T/C (dose: 200.0 mg/kg/injection, schedule: Q01DX015 (ip), vehicle: saline) of the same compound?
**A.** 97 % of control and 113 % of control

**Q.** What about the T/C (dose: 200.0 mg/kg/injection, schedule: Q04DX003 (ip), vehicle: saline) of the same compound?
**A.** 108 % of control

**Q.** And the T/C (dose: 264.0 mg/kg/injection, schedule: Q01DX009 (ip), vehicle: acetone)?
**A.** 120 % of control

**Q.** What about the T/C (dose: 264.0 mg/kg/injection, schedule: Q01DX009 (ip), vehicle: saline) of the same compound?
**A.** 123 % of control

**Q.** What about the T/C (dose: 264.0 mg/kg/injection, schedule: Q04DX003 (ip), vehicle: saline) of the same compound?
**A.** 105 % of control and 112 % of control

**Q.** And the T/C (dose: 266.0 mg/kg/injection, schedule: Q01DX009 (ip), vehicle: saline with Tween-80)?
**A.** 113 % of control

**Q.** What about the T/C (dose: 300.0 mg/kg/injection, schedule: Q01DX015 (ip), vehicle: saline) of the same compound?
**A.** 121 % of control

**Q.** What about the T/C (dose: 400.0 mg/kg/injection, schedule: Q01DX009 (ip), vehicle: Klucel (hydroxypropylcellulose) (HPC)) of the same compound?
**A.** 168 % of control

**Q.** What about the T/C (dose: 400.0 mg/kg/injection, schedule: Q01DX009 (ip), vehicle: acetone) of the same compound?
**A.** 153 % of control

**Q.** What about the T/C (dose: 400.0 mg/kg/injection, schedule: Q04DX003 (ip), vehicle: saline) of the same compound?
**A.** 117 % of control and 91 % of control

**Q.** What about the T/C (dose: 450.0 mg/kg/injection, schedule: Q01DX015 (ip), vehicle: saline) of the same compound?
**A.** 153 % of control

**Q.** And the T/C (dose: 600.0 mg/kg/injection, schedule: Q01DX009 (ip), vehicle: saline)?
**A.** 159 % of control

**Q.** For `COC(=O)c1ccc2ccccc2n1`, which T/C (dose: 37.5 mg/kg/injection, schedule: Q04DX003 (ip), vehicle: saline) is on record?
**A.** 112 % of control

**Q.** And the T/C (dose: 75.0 mg/kg/injection, schedule: Q01DX001 (ip), vehicle: saline)?
**A.** 112 % of control

**Q.** What about the T/C (dose: 75.0 mg/kg/injection, schedule: Q04DX003 (ip), vehicle: saline) of the same compound?
**A.** 93 % of control

**Q.** And the T/C (dose: 150.0 mg/kg/injection, schedule: Q01DX001 (ip), vehicle: saline)?
**A.** 86 % of control

**Q.** What about the T/C (dose: 150.0 mg/kg/injection, schedule: Q04DX003 (ip), vehicle: saline) of the same compound?
**A.** 93 % of control

**Q.** With `CCOC(=O)C1=C(C)NC(C)=C(C(=O)OCC)C1c1cccc([N+](=O)[O-])c1` as the compound, how does the T/C (dose: 100.0 mg/kg/injection, schedule: Q04DX003 (ip), vehicle: Klucel (hydroxypropylcellulose) (HPC)) read?
**A.** 100 % of control

**Q.** And the T/C (dose: 200.0 mg/kg/injection, schedule: Q04DX003 (ip), vehicle: Klucel (hydroxypropylcellulose) (HPC))?
**A.** 105 % of control

**Q.** What about the T/C (dose: 400.0 mg/kg/injection, schedule: Q04DX003 (ip), vehicle: Klucel (hydroxypropylcellulose) (HPC)) of the same compound?
**A.** 108 % of control

**Q.** What does the source list for `C[N+](C)(C)C12CCC(CC1)C1([N+](C)(C)C)CCC2CC1`?
**A.** T/C [1]: 109 % of control; T/C [2]: 113 % of control; T/C [3]: 117 % of control

**Q.** How did the T/C [1] turn out when `O=C(O)COc1ccc(C(=O)O)cc1` was run?
**A.** 111 % of control

**Q.** What about the T/C [2] of the same compound?
**A.** 97 % of control

**Q.** What about the T/C [3] of the same compound?
**A.** 101 % of control

From PubChem BioAssay AID248 (DTP/NCI, 2004)
